Experimental data as given in patent US20260285853A1, “COMPOUNDS AND METHODS FOR MODULATING SPLICING” (REMIX THERAPEUTICS INC., priority 2023, published 2026).

Assays:
Type in all cases: cell-based
[1] = tested on: MYB mRNA; experiment: Splicing RT-qPCR assay, canonical (CJ) and alternative (AJ) junction mRNA, K562 cells; conditions: Homo sapiens, K562.3 cells, 24 hours; for AC50: read-out: MYB AJ (AC50, increase in AJ mRNA); for IC50: read-out: MYB CJ (IC50, decrease in CJ mRNA)
Description: (§1) Compounds described herein were used to modulate RNA transcript abundance in cells. The expression of a target mRNA was measured by detecting the formation of an exon-exon junction in the canonical transcript (CJ). A compound mediated exon-inclusion event was detected by observing an increase in formation of a new junction with an alternative exon (AJ). Real-time qPCR assays were used to detect these splicing switches and interrogate the potency of various compounds towards different target genes. A high-throughput real time quantitative PCR (RT-qPCR) assay was developed to measure these two isoforms of the mRNA (CJ and AJ) for exemplary genes, such as HTT, SMN2, and MYB, together with a control housekeeping gene, GAPDH or GUSB or PPIA, used for normalization. Briefly, the A673 or K562 cell line was treated with various compounds described herein (e.g., compounds of Formula (I)). After treatment, the levels of the HTT, MYB, or SMN2 mRNA targets were determined from each sample of cell lysate by cDNA synthesis followed by qPCR.
(§2) • Cells-to-CT 1-step kit: ThermoFisher A25602, Cells-to-CT lysis reagent: ThermoFisher 4391851C, TaqMan™ Fast Virus 1-Step Master Mix: ThermoFisher 4444436 • GAPDH: VIC-PL, ThermoFisher 4326317E (Assay: Hs99999905_m1)—used for K562/suspension cell lines • GUSB: VIC-PL, ThermoFisher 4326320E (Assay: Hs99999908_m1)—used for K562/suspension cell lines • PPIA: VIC-PL, ThermoFisher 4326316E (Assay: Hs99999904_m1)—used for A673/adherent cell lines
(§3) The K562 cell line was cultured in IMDM with 10% FBS. For K562, cells were diluted with full growth media and plated in either a 96-well plate (50,000 cells in 50 uL media per well) or a 384-well plate (8,000-40,000 cells in 45 uL media per well). An 11-point 3-fold serial dilution of the compounds were made in DMSO then diluted in media in an intermediate plate. Compound was transferred from the intermediate plate to the cell plate with the top dose at a final concentration of 10 uM in the well. Final DMSO concentration was kept at or below 0.25%. Final volume was 100 uL for 96-well plate and 50 uL for 384-well plate. The cell plate was then placed in an incubator at 37° C. with 5% CO2 for 24 hours.
(§4) The cells were then gently washed with 50 uL-100 uL cold PBS before proceeding to addition of lysis buffer. 30 uL-50 uL of room temperature lysis buffer with DNAse I (and optionally RNAsin) was added to each well. Cells were shaken/mixed thoroughly at room temperature for 5-10 minutes for lysis to take place and then 3 uL-5 uL of room temperature stop solution was added and wells were shaken/mixed again. After 2-5 minutes, the cell lysate plate was transferred to ice for RT-qPCR reaction setup. The lysates could also be frozen at −80° C. for later use.
(§5) In some cases, a direct lysis buffer was used. An appropriate volume of 3× lysis buffer (10 mM Tris, 150 mM NaCl, 1.5%-2.5% Igepal and 0.1-1 U/uL RNAsin, pH 7.4) was directly added to either K562 or A673 cells in media and mixed by pipetting 3 times. The plates were then incubated at room temperature with shaking/rocking for 20-50 minutes to allow for lysis to take place. After this time, the cell lysate plate was transferred to ice to set up for the RT-qPCR reactions. The lysates could also be frozen at −80° C. for later use.
(§6) To set up 10 uL RT-qPCR reactions, cell lysates were transferred to 384-well qPCR plates containing the master mix according to the table below. The plates were sealed, gently vortexed, and spun down before the run. The volumes were adjusted accordingly in some instances where the reaction was carried in 20 uL. The table below summarizes the components of the RT-qPCR reactions:
(§7) The RT-qPCR reaction was performed using a QuantStudio (ThermoFisher) under the following fast cycling conditions. All samples and standards were analyzed at least in duplicate. In some instances, bulk room temperature (RT) step of 5-10 minutes was completed for all plates before proceeding with qPCR. […]

[2] = tested on: HTT mRNA; experiment: as above; conditions: Homo sapiens, K562.3 cells, 24 hours; for AC50: read-out: HTT AJ (AC50, increase in AJ mRNA); for IC50: read-out: HTT CJ (IC50, decrease in CJ mRNA)
Description: as §1, §2, §3, §4, §5, §6, §7

[3] = tested on: MYB mRNA; experiment: Splicing RT-qPCR assay (THP), Table 2A; conditions: Table 2A (THP); for AC50: AJ mRNA increase, read-out: MYB AJ (increase in alternative junction mRNA, AC50); for IC50: CJ mRNA decrease, read-out: MYB CJ (decrease in canonical junction mRNA, IC50)
[4] = tested on: SMN2 mRNA; experiment: Gene panel canonical junction qPCR assay, decrease in CJ mRNA, Table 3; conditions: decrease in canonical junction (CJ) mRNA, gene panel qPCR, Table 3
How it was run: (§8)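 A673 (DMEM, 10% FBS, 15,000 cells/well) or K562 (IMDM, 10% FBS) cells treated 24 h at 37 °C with 11-point 3-fold dilutions, top 10 uM, DMSO ≤0.25%. Canonical exon-exon junction mRNA measured by RT-qPCR, normalized to GAPDH, GUSB or PPIA and DMSO (ΔΔCt); IC50 from 4-parameter logistic fit.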

[5] = tested on: MYB mRNA; experiment: as above; conditions: decrease in canonical junction (CJ) mRNA, gene panel qPCR, Table 3
How it was run: as §8

[6] = tested on: HTT mRNA; experiment: as above; conditions: decrease in canonical junction (CJ) mRNA, gene panel qPCR, Table 3
How it was run: as §8

[7] = tested on: SH-SY5Y (human neuroblastoma) cells; experiment: Cell viability, Cell Titer Glo 2.0 assay; conditions: read-out: Viability SHSY5Y.3 GI50
How it was run: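 Toxicity screen in SH-SY5Y cells. Compounds were serially diluted in DMSO and then in medium, giving 0.1% DMSO final. Viability was read with CellTiter-Glo 2.0 after 72 h at 37 °C, 5% CO2, against medium-only blank wells.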

Row | SMILES | AC50 [1] [µM] | IC50 [1] [µM] | AC50 [2] [µM] | IC50 [2] [µM] | AC50 [3] [µM] | IC50 [3] [µM] | IC50 [4] [µM] | IC50 [5] [µM] | IC50 [6] [µM] | GI50 [7] [µM]
1 | Cc1cn2cc(NC(=O)c3ccc(N4CC[C@@H](NCC5COC5)C4)c4cn(C)nc34)cc(F)c2n1 [Compound 104, N-(8-fluoro-2-methylimidazo[1,2-a]pyridin-6-yl)-2-methyl-4-[(3R)-3-[(oxetan-3-ylmethyl)amino]pyrrolidin-1-yl]indazole-7-carboxamide] | < 0.1 | < 0.1 | 1 to 10 | 1 to 10 | < 0.1 | < 0.1 | < 0.1 | < 0.1 | 1 to 10 | 0.1 to 1
2 | Cc1cn2cc(NC(=O)c3ccc(N4CC[C@H](NCC(C)(C)O)C4)c4cn(C)nc34)cc(F)c2n1 [Compound 132, N-(8-fluoro-2-methyl-imidazo[1,2-a]pyridin-6-yl)-4-[(3S)-3-[(2-hydroxy-2-methylpropyl)amino]-pyrrolidin-1-yl]-2-methyl-indazole-7-carboxamide] | 0.1 to 1 | 0.1 to 1 | > 10 | 1 to 10 | 0.1 to 1 | 0.1 to 1 | < 0.1 | 0.1 to 1 | 1 to 10 | 1 to 10
3 | CNC12CC(C1)N(c1ccc(C(=O)Nc3cc(F)c4nc(C)cn4c3)c3nn(C)cc13)C2 [Compound 135, N-(8-fluoro-2-methyl-imidazo[1,2-a]pyridin-6-yl)-2-methyl-4-[4-(methylamino)-2-azabicyclo[2.1.1]hexan-2-yl]-indazole-7-carboxamide] | 0.1 to 1 | 0.1 to 1 | 1 to 10 | 0.1 to 1 | < 0.1 | 0.1 to 1 | < 0.1 | 0.1 to 1 | 0.1 to 1 | 0.1 to 1
4 | CCNC12CC(C1)N(c1ccc(C(=O)Nc3cc(F)c4nc(C)cn4c3)c3nn(C)cc13)C2 [Compound 136, 4-[4-(ethylamino)-2-azabicyclo-[2.1.1]hexan-2-yl]N-(8-fluoro-2-methylimidazo[1,2-a]pyridin-6-yl)-2-methyl-indazole-7-carboxamide] | 0.1 to 1 | 0.1 to 1 | 1 to 10 | 1 to 10 | 0.1 to 1 | 0.1 to 1 | < 0.1 | 0.1 to 1 | 1 to 10 | 0.1 to 1
5 | CN[C@H]1CCN(c2c(OC)cc(C(=O)Nc3cc(F)c4nc(C)cn4c3)c3nn(C)cc23)C1 [Compound 137, N-(8-fluoro-2-methyl-imidazo[1,2-a]pyridin-6-yl)-5-methoxy-2-methyl-4-[(3S)-3-(methylamino)pyrrolidin-1-yl]indazole-7-carboxamide] | > 10 | > 10 | > 10 | > 10 | > 10 | > 10 | 0.1 to 1 | > 10 | > 10 | 1 to 10
